Source: US10407467B2, “Polymyxin derivatives and their use in combination therapy together with different antibiotics” (priority 2013, dated 2019)
Counter-ions that a name gives are not always drawn. Numbered stars: 1 amine (or outer) side, 2 acyl side, 3 side chain; on linkers, the order of the positions; unused ones are H or OH. Bridge positions count the residues as written; N and C are the ends. Square brackets hold non-standard residues; d marks the D form. Peptide text beside a SMILES is read from it. * marks the point of attachment. ξ: configuration not given here. Acetyl(cis-4-NH-cyclohexyl) = O=C(C[C@H]1CC[C@@H](N[*:1])CC1)[*:2]; ξHexahydromandeloyl = O=C(C(O)C1CCCCC1)*; Cyclohexylacetyl = O=C(CC1CCCCC1)*; Thr(3ξ) = CC(O)[C@H](N)C(=O)O; Octanoyl = CCCCCCCC(=O)*; Dab = NCC[C@H](N)C(=O)O; X4 = NC1CCCC1C(=O)*

Assays:
Assay in all cases: MIC, compound in combination with a second agent (broth microdilution)
Assay type in all cases: cell-based
[1] = tested on: Acinetobacter baumannii; conditions: 1:1 (wt:wt) combination with Rifampicin
How it was run: (§1)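 Susceptibility was tested on up to four strains of each pathogen with the compound paired 1:1 by weight alongside another antibacterial. Values count both components together and use the lower duplicate if replicates agreed within 2-fold.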

[2] = tested on: Pseudomonas aeruginosa; conditions: 1:1 (wt:wt) combination with Rifampicin
How it was run: as §1

[3] = tested on: Escherichia coli; conditions: 1:1 (wt:wt) combination with Rifampicin
How it was run: as §1

[4] = tested on: Klebsiella pneumoniae; conditions: for MIC K. pneumoniae ATCC 4352: strain ATCC 4352
How it was run: as §1

[5] = MIC = total drug concentration, strain ATCC BAA-747
[6] = MIC = total drug concentration, strain CCUG57249
[7] = MIC = total drug concentration, strain NCTC 13423
[8] = MIC = total drug concentration, strain NCTC 13424
[9] = MIC = total drug concentration, strain ATCC 27853
[10] = MIC = total drug concentration, strain ATCC CRM-9027
[11] = MIC = total drug concentration, strain ATCC-47
[12] = MIC = total drug concentration, strain CCUG 59626
[13] = MIC = total drug concentration, strain ATCC25922
[14] = MIC = total drug concentration, strain NCTC9001
[15] = 1:1 (wt:wt) combination with Rifampicin, MIC = total drug concentration, strain ATCC-BAA-2146
[16] = 1:1 (wt:wt) combination with Rifampicin, MIC = total drug concentration, strain CCUG-59348
[17] = 1:1 (wt:wt) combination with Rifampicin, MIC = total drug concentration
[18] = MIC is total drug concentration
[19] = 1:1 (wt:wt) combination with Rifampicin, MIC is total drug concentration
[20] = Ratio of Compound to Rifampicin 1:1, total drug concentration
[21] = Ratio of Compound to Rifampicin 1:3, total drug concentration
[22] = Ratio of Compound to Rifampicin 3:1, total drug concentration

CC(C)C[C@@H]1NC(=O)[C@@H](Cc2ccccc2)NC(=O)[C@H](CCN)NC(=O)[C@@H](NC(=O)[C@H](CCN)NC(=O)[C@@H](NC(=O)C[C@H]2CC[C@@H](N)CC2)C(C)O)CCNC(=O)[C@H](C(C)O)NC(=O)[C@H](CCN)NC(=O)[C@H](CCN)NC1=O (stereo partly drawn) [Example 36, Cis-2-(4-aminocyclohexane) ethanoyl polymyxin B nonapeptide, trifluoroacetate salt] ({Acetyl(cis-4-NH-cyclohexyl)}-[Thr(3ξ)][Dab][Dab][Dab][dF]L[Dab][Dab][Thr(3ξ)]; lactam 3-C)
MIC A. baumannii ATCC BAA-747 [1, 5]: 0.125 micrograms/mL | MIC A. baumannii CCUG57249 [1, 6]: 0.25 micrograms/mL | MIC A. baumannii NCTC 13423 [1, 7]: 0.125 micrograms/mL | MIC A. baumannii NCTC 13424 [1, 8]: 0.5 micrograms/mL | MIC P. aeruginosa ATCC 27853 [2, 9]: 0.25 micrograms/mL | MIC P. aeruginosa ATCC CRM-9027 [2, 10]: 0.25 micrograms/mL | MIC P. aeruginosa ATCC-47 [2, 11]: 0.125 micrograms/mL | MIC P. aeruginosa CCUG 59626 [2, 12]: 0.25 micrograms/mL | MIC E. coli ATCC25922 [3, 13]: 0.25 micrograms/mL | MIC E. coli NCTC9001 [3, 14]: 0.125 micrograms/mL | MIC K. pneumoniae ATCC-BAA-2146 [4, 15]: 0.5 micrograms/mL | MIC K. pneumoniae CCUG-59348 [4, 16]: 4 micrograms/mL | MIC K. pneumoniae NCTC 13438 ([4]; 1:1 (wt:wt) combination with Rifampicin, MIC = total drug concentration, strain NCTC 13438): 1 micrograms/mL

CC(C)C[C@@H]1NC(=O)[C@@H](Cc2ccccc2)NC(=O)[C@H](CCN)NC(=O)[C@@H](NC(=O)[C@@H](CO)NC(=O)[C@@H](NC(=O)C2CCCC2N)C(C)O)CCNC(=O)[C@H](C(C)O)NC(=O)[C@H](CCN)NC(=O)[C@H](CCN)NC1=O (stereo partly drawn) [Example 44, [2-Amino-cyclopentane-carbonyl]-L-Thr-D-Ser-polymyxin B hepatapeptide, TFA salt] (X4-[Thr(3ξ)][dS][Dab][Dab][dF]L[Dab][Dab][Thr(3ξ)]; lactam 3-C)
MIC A. baumannii ATCC BAA-747 [1, 5]: 0.25 micrograms/mL | MIC A. baumannii CCUG57249 [1, 6]: 0.125 micrograms/mL | MIC A. baumannii NCTC 13423 [1, 7]: 0.125 micrograms/mL | MIC A. baumannii NCTC 13424 [1, 8]: 0.125 micrograms/mL | MIC P. aeruginosa ATCC 27853 [2, 9]: 0.5 micrograms/mL | MIC P. aeruginosa ATCC CRM-9027 [2, 10]: 0.5 micrograms/mL | MIC P. aeruginosa ATCC-47 [2, 11]: 1 micrograms/mL | MIC P. aeruginosa CCUG 59626 [2, 12]: 0.5 micrograms/mL | MIC E. coli ATCC25922 [3, 13]: 0.125 micrograms/mL | MIC E. coli NCTC9001 [3, 14]: 0.5 micrograms/mL | MIC K. pneumoniae ATCC 4352 [4, 17]: 0.125 micrograms/mL | MIC K. pneumoniae ATCC-BAA-2146 [4, 15]: 1 micrograms/mL | MIC K. pneumoniae CCUG-59348 [4, 16]: 4 micrograms/mL

CC(C)C[C@@H]1NC(=O)[C@@H](Cc2ccccc2)NC(=O)[C@H](CCN)NC(=O)[C@@H](NC(=O)[C@@H](CO)NC(=O)[C@@H](NC(=O)C(O)C2CCCCC2)C(C)O)CCNC(=O)[C@H](C(C)O)NC(=O)[C@H](CCN)NC(=O)[C@H](CCN)NC1=O (stereo partly drawn) [Example 46, [2-cyclohexyl-2-hydroxyethanoyl]-L-Thr-D-Ser-polymyxin B heptapeptide, TFA salt] (ξHexahydromandeloyl-[Thr(3ξ)][dS][Dab][Dab][dF]L[Dab][Dab][Thr(3ξ)]; lactam 3-C)
MIC A. baumannii ATCC BAA-747 [1, 5]: ≤0.06 micrograms/mL | MIC A. baumannii CCUG57249 [1, 6]: 0.125 micrograms/mL | MIC A. baumannii NCTC 13423 [1, 7]: 0.125 micrograms/mL | MIC A. baumannii NCTC 13424 [1, 8]: ≤0.06 micrograms/mL | MIC P. aeruginosa ATCC 27853 [2, 9]: 1 micrograms/mL | MIC P. aeruginosa ATCC CRM-9027 [2, 10]: 1 micrograms/mL | MIC P. aeruginosa ATCC-47 [2, 11]: 2 micrograms/mL | MIC P. aeruginosa CCUG 59626 [2, 12]: 1 micrograms/mL | MIC E. coli ATCC25922 [3, 13]: 0.125 micrograms/mL | MIC E. coli NCTC9001 [3, 14]: 0.25 micrograms/mL | MIC K. pneumoniae ATCC 4352 [4, 17]: 0.125 micrograms/mL | MIC K. pneumoniae ATCC-BAA-2146 [4, 15]: 1 micrograms/mL | MIC K. pneumoniae CCUG-59348 [4, 16]: 2 micrograms/mL

CCCCCCCC(=O)N[C@H](C(=O)N[C@H](CO)C(=O)N[C@H]1CCNC(=O)[C@H](C(C)O)NC(=O)[C@H](CCN)NC(=O)[C@H](CCN)NC(=O)[C@H](CC(C)C)NC(=O)[C@@H](Cc2ccccc2)NC(=O)[C@H](CCN)NC1=O)C(C)O (stereo partly drawn) [Example C1, NAB-739 TFA salt, reference compound] (Octanoyl-[Thr(3ξ)][dS][Dab][Dab][dF]L[Dab][Dab][Thr(3ξ)]; lactam 3-C)
MIC A. baumannii ATCC BAA-747 [1, 5]: 0.5 micrograms/mL | MIC A. baumannii CCUG57249 [1, 6]: 0.5 micrograms/mL | MIC A. baumannii NCTC 13423 [1, 7]: 0.5 micrograms/mL | MIC A. baumannii NCTC 13424 [1, 8]: 0.5 micrograms/mL | MIC P. aeruginosa ATCC 27853 [2, 9]: 2 micrograms/mL | MIC P. aeruginosa ATCC CRM-9027 [2, 10]: 2 micrograms/mL | MIC P. aeruginosa ATCC-47 [2, 11]: 4 micrograms/mL | MIC P. aeruginosa CCUG 59626 [2, 12]: 2 micrograms/mL | MIC E. coli ATCC25922 [3, 13]: 0.5 micrograms/mL | MIC E. coli NCTC9001 [3, 14]: 1 micrograms/mL | MIC K. pneumoniae ATCC 4352 [4, 17]: 0.5 micrograms/mL | MIC K. pneumoniae ATCC-BAA-2146 [4, 15]: 2 micrograms/mL | MIC K. pneumoniae CCUG-59348 [4, 16]: 4 micrograms/mL

CC(C)C[C@@H]1NC(=O)[C@@H](Cc2ccccc2)NC(=O)[C@H](CCN)NC(=O)[C@@H](NC(=O)[C@H](CCN)NC(=O)[C@@H](NC(=O)CC2CCCCC2)C(C)O)CCNC(=O)[C@H](C(C)O)NC(=O)[C@H](CCN)NC(=O)[C@H](CCN)NC1=O (stereo partly drawn) [Example C4, Cyclohexyl ethanoyl polymyxin B nonapeptide, TFA salt, reference compound] (Cyclohexylacetyl-[Thr(3ξ)][Dab][Dab][Dab][dF]L[Dab][Dab][Thr(3ξ)]; lactam 3-C)
MIC A. baumannii ATCC BAA-747 [1, 18]: 0.25 micrograms/mL | MIC A. baumannii CCUG57249 [1, 18]: 0.25 micrograms/mL | MIC A. baumannii NCTC 13423 [1, 18]: 0.125 micrograms/mL | MIC A. baumannii NCTC 13424 [1, 18]: 0.25 micrograms/mL | MIC P. aeruginosa ATCC 27853 [2, 18]: 0.5 micrograms/mL | MIC P. aeruginosa ATCC CRM-9027 [2, 18]: 0.5 micrograms/mL | MIC P. aeruginosa ATCC-47 [2, 18]: 1 micrograms/mL | MIC P. aeruginosa CCUG 59626 [2, 18]: 0.25 micrograms/mL | MIC E. coli ATCC25922 [3, 18]: 0.25 micrograms/mL | MIC E. coli NCTC9001 [3, 18]: 0.5 micrograms/mL | MIC K. pneumoniae ATCC-BAA-2146 [4, 19]: 1 micrograms/mL | MIC K. pneumoniae CCUG-59348 [4, 19]: 2 micrograms/mL | MIC K. pneumoniae NCTC 13438 [4, 19]: 0.5 micrograms/mL

Polymyxin B nonapeptide [PMBN, reference compound]
MIC A. baumannii ATCC BAA-747 [1, 5]: 0.25 micrograms/mL | MIC A. baumannii CCUG57249 [1, 6]: 1 micrograms/mL | MIC A. baumannii NCTC 13423 [1, 7]: 0.5 micrograms/mL | MIC A. baumannii NCTC 13424 [1, 8]: 0.5 micrograms/mL | MIC P. aeruginosa ATCC 27853 [2, 9]: 0.125 micrograms/mL | MIC P. aeruginosa ATCC CRM-9027 [2, 10]: 0.125 micrograms/mL | MIC P. aeruginosa ATCC-47 [2, 11]: 0.25 micrograms/mL | MIC P. aeruginosa CCUG 59626 [2, 12]: 0.125 micrograms/mL | MIC E. coli ATCC25922 [3, 13]: 0.5 micrograms/mL | MIC E. coli NCTC9001 [3, 14]: 1 micrograms/mL | MIC K. pneumoniae ATCC 4352 [4, 17]: 0.25 micrograms/mL | MIC K. pneumoniae ATCC-BAA-2146 [4, 15]: 1 micrograms/mL | MIC K. pneumoniae CCUG-59348 [4, 16]: 4 micrograms/mL | MIC K. pneumoniae ATCC-BAA-2146 [4, 20]: 2 micrograms/mL | MIC K. pneumoniae CCUG-59348 [4, 20]: 4 micrograms/mL | MIC K. pneumoniae NCTC 13438 [4, 20]: 2 micrograms/mL | MIC K. pneumoniae ATCC-BAA-2146 [4, 21]: 2 micrograms/mL | MIC K. pneumoniae CCUG-59348 [4, 21]: 4 micrograms/mL | MIC K. pneumoniae NCTC 13438 [4, 21]: 2 micrograms/mL | MIC K. pneumoniae ATCC-BAA-2146 [4, 22]: 2 micrograms/mL | MIC K. pneumoniae CCUG-59348 [4, 22]: 8 micrograms/mL | MIC K. pneumoniae NCTC 13438 [4, 22]: 2 micrograms/mL
